# Measured values reported in patent US11739120B2, “Water soluble salts of lipidated peptides and methods for preparing and using the same” (Bridge Biotherapeutics, Inc., priority 2018, dated 2023).
# Residues, ends and D or L forms follow the SMILES beside them. *: point of attachment. Palmitoyl = CCCCCCCCCCCCCCCC(=O)*
# Experiments:
# Format in all cases: physicochemical
# [1] = Approximate solubility of Compound I-1 (amorphous) in different solvents (manual dilution, visual observation); conditions: ambient laboratory temperature
# Protocol: In this Example, approximate solubility tests of Compound I-1 (amorphous) were conducted in the different solvents at ambient laboratory temperature. The solubility was also tested by manual dilution combined with visual observation. In particular, a known amount of Compound I-1 was weighed and added to a vial. A known amount of solvent was gradually added to the vial with constant stirring. The solvent addition was kept at a very slow rate to minimize any excess solvent beyond what is needed to fully dissolve the solids. In order to cross-check the solubility, a small amount of Compound I-1 was added to the vial to confirm that the solution became turbid.
# [2] = Solubility of amorphous, Form A and Form E of Compound I-1 in water (shaken at 25° C., HPLC); conditions: for Final pH: mother liquor
# Protocol: The solubility of amorphous, Form A or E of Compound I-1 in water was further studied. Specifically, about 250 mg Compound I-1 in amorphous, Forms A and E were each suspended in a 2 mL HPLC vial with 0.9 mL of water. Each suspension was then shaken at 25° C. under 1000 rpm. The suspensions were analyzed at 1 h and 24 h. In particular, at either the 1 h or 24 h time point, the slurries were centrifuged and analyzed by HPLC. The pH values of the mother liquors were measured, and the residues were characterized by XRPD.
# [3] = Stabilities of amorphous Compound I-1 (ICH guideline, XRPD)
# Protocol: Stabilities of amorphous Compound I-1 were also conducted according to ICH guideline.
# [4] = Storage stability of formulations of amorphous Compound I-1; conditions: powder from capsules; 6 month at 25° C./60% RH or 40° C./75% RH
# Protocol: This enteric coated capsule formulation was tested for stability and dissolution. […] Thus, this formulation can be storage stable.
# This capsule formulation was also tested for stability and dissolution. […] Thus, Formulation B is also storage stable.
# This capsule formulation was also tested for stability and dissolution.
# This tablet formulation was also tested for stability and dissolution.
compound,measurement,setting,value
"CCCCCCCCCCCCCCCC(=O)N1CCC[C@H]1C(=O)N1CCC[C@H]1C(=O)NCC(=O)N[C@@H](Cc1ccc(O)cc1)C(=O)[O-].[Na+] [Compound I-1 (Amorphous), sodium palmitoyl-L-prolyl-L-prolylglycyl-L-tyrosinate] (Palmitoyl-PPGY-OH)",solubility,"[1]; 1,4-Dioxane",33.3 to 50 mg/mL
same,solubility,[1]; 1-butanol,50 to 100 mg/mL
same,solubility,[1]; 2-Methyl Tetrahydrofuran,> 100 mg/mL
same,solubility,[1]; Acetone,< 1 mg/mL
same,solubility,[1]; Acetone:H2O (1:2),50 to 100 mg/mL
same,solubility,[1]; Acetonitrile,< 1 mg/mL
same,solubility,[1]; Acetonitrile:H2O (1:1),50 to 100 mg/mL
same,solubility,[1]; Cyclohexane,< 1 mg/mL
same,solubility,[1]; DMF,20 to 33.3 mg/mL
same,solubility,[1]; DMSO,50 to 100 mg/mL
same,solubility,[1]; Ethanol,50 to 100 mg/mL
same,solubility,[1]; Ethanol:H2O (1:1),50 to 100 mg/mL
same,solubility,[1]; Ethanol:H2O (3:1),50 to 100 mg/mL
same,solubility,[1]; Ethyl acetate,< 1 mg/mL
same,solubility,[1]; Heptane,< 1 mg/mL
same,solubility,[1]; Isopropyl acetate,< 1 mg/mL
same,solubility,[1]; Isopropyl alcohol,50 to 100 mg/mL
same,solubility,[1]; Methanol,> 100 mg/mL
same,solubility,[1]; Methanol:H2O (1:1),> 100 mg/mL
same,solubility,[1]; Methanol:H2O (3:1),> 100 mg/mL
same,solubility,[1]; Methyl ethyl ketone,3.3 to 5 mg/mL
same,solubility,[1]; Methyl isobutyl ketone,1.2 to 1.4 mg/mL
same,solubility,[1]; Methyl t-butyl ether,< 1 mg/mL
same,solubility,[1]; N-methyl pyrrolidone,50 to 100 mg/mL
same,solubility,[1]; Tetrahydrofuran,> 100 mg/mL
same,solubility,[1]; Tetrahydrofuran:H2O (1:1),50 to 100 mg/mL
same,solubility,[1]; Toluene,50 to 100 mg/mL
same,solubility,[1]; Water,> 100 mg/mL
same,Final pH,"[2]; water, 25° C., time point 1 hour",9.05
same,Final pH,"[2]; water, 25° C., time point 24 hours",9.03
same,XRPD pattern (wet),"[2]; residue of the suspension in water, 25° C., time point 24 hours",Mostly D
same,Solubility at 25° C.,"[2]; water, time point 1 hour",239.1 mg/mL
same,solubility at 1 h,"[2]; water, time point 1 hour",> 200 mg/mL
same,Solubility at 25° C.,"[2]; water, time point 24 hours",180.1 mg/mL
same,solubility at 24 h,"[2]; water, time point 24 hours",~180 mg/mL
same,form transformation (XRPD),"[3]; all tested conditions (40° C./75% RH with protection from moisture, 60° C., ambient) except high humidity",no form transformation
same,form transformation (XRPD),[3]; high humidity condition for 1 week,could be transferred into Form A
same,"crystalline conversion (X-ray diffractograms, FIG. 12)",[4],no crystalline conversion was observed
